US20230381174A1, “THIONOESTER-DERIVATIVE OF RABEXIMOD FOR THE TREATMENT OF INFLAMMATORY AND AUTOIMMUNE DISORDERS” (Vironova Thionationl AB, priority 2020, published 2023)

What was measured:
[1] = system: collagen antibody induced arthritis (CAIA); assay: Collagen antibody induced arthritis (CAIA) mouse model; assay type: in vivo, mice (DBA/1); details: for histological (IHC) score of front paws compared with vehicle: 20 mg/kg, at study termination, score 0-3, FIG. 8; for adverse effects from treatments: CAIA mice, any of the doses tested (5, 10, 20 mg/kg s.c.); for disease severity (macroscopic arthritis score) compared with vehicle: not significant
Description: The collagen antibody induced arthritis (CAIA) arthritis in mice is a model independent of both B and T cells. CAIA is an acute model of arthritis and the disease is induced with antibodies to collagen type II. The antibodies bind to cartilage, leading to activation of the immune system followed by recruiting of macrophages and granulocytes to the joints. After an LPS boost at day five, disease progression starts and reaches a maximum around day 15. CAIA model: Mice (DBA/1, 8-10 weeks old) were weighed at day −1 for determination of mean weight of animals in the experiment and for composition of groups. Groups were mixed within cages to avoid cage effects. The mice were injected i.v. with a cocktail of four (4) monoclonal antibodies against collagen type II (2 mg/mouse) on day 0. Day 5 the mice were injected with LPS (50 μg/mouse) i.p., in order to boost the disease. Dose preparation of test items were performed daily in corn oil. Disease was evaluated daily from day 3 in a blinded fashion using a macroscopic scoring system of the four limbs ranging from 0 to 15 (1 point for each swollen or red toe, 1 point for a swollen or red mid foot digit or knuckle, 5 points for a swollen ankle) resulting in a maximum total score of 60 for each mouse. Due to ethical restrictions, animals with a score exceeding 45 were removed from the experiment. Immunohistochemistry: Front paws from animals, in the vehicle, Rabeximod (20 mg/kg) and the inventive compound (20 mg/kg) groups, were collected at termination of the animals. The paws were immediately transferred to 4% formaldehyde containing vials for immersion fixation. The tissues were fired for 24 hours and then transferred to 70% EtOH and stored at +4° C. until staining. Paws were decalcified, paraffin embedded, sectioned and stained for hematoxylin and eosin (H&E). Resulting slides were photographed at high resolution. Images were used for morphology analysis to study cartilage destruction and infiltration of inflammatory cells in the joints. An overall assessment for the whole paw were scored (0-3), including evaluation of synovial inflammation, synovial pannus formation and bone destruction. Graphs and statistical analysis were performed using Prism 8 for Mac OS X (GraphPad Software, San Diego, CA, USA). Results are presented as mean values±SEM, if not otherwise stated. Statistics were calculated using a two-tailed non-parametric Mann-Whitney test where p<0.05 was considered significant. * represents a p-value<0.05, ** represents a p-value<0.01 and *** represents a p-value<0.001.

[2] = system: Reactive Oxygen Species (ROS) production in PBMCs; assay: Isoluminol assay: ROS production in PMA-activated PBMCs; assay type: cell-based, human; details: PBMCs activated with PMA at 30 ng/ml; luminescence measured over 25 minutes; FIGS. 1 and 2
Description: Oxygen metabolism has an important role in the pathogenesis of both rheumatoid arthritis and multiple sclerosis. Reactive oxygen species (ROS) produced in the course of cellular oxidative phosphorylation, and by activated phagocytic cells during oxidative bursts, exceed the physiological buffering capacity and result in oxidative stress. The excessive production of ROS can damage protein, lipids, nucleic acids, and matrix components. ROS also serve as important intracellular signaling molecules that amplify the synovial inflammatory-proliferative response.
Frozen PBMCs, isolated from human blood (Blodcentralen, Lund, Sweden) through gradient centrifugation using Ficoll, were thawed quickly, activated with PMA at 30 ng/ml and treated with Rabeximod or the inventive compound, at different concentrations ranging from 12.5 μg/ml with 1:2 dose titrations over 8 steps. Controls included were DMSO control, PMA at 30 ng/ml and 0 μg/ml of test items. […] Cell concentration was determined using a Scepter cell counter (Millipore Merck, MA, USA) and diluted at 2×10^6 cells/ml when added to the assay plate. The luminescence signal was measured over 25 minutes.
ROS production was investigated after treatment with the inventive compound or Rabeximod at different concentrations ranging from 12.5 μg/ml with 1:2 dose titrations over 8 steps. Luminescence signal was measured over 25 minutes.

IL-1β = assay: LPS assay: IL-1β release in whole blood; assay type: cell-based, human; details: LPS 500 ng/ml
Description: (§1) Inflammation can be induced in vitro by stimulation with LPS, manifested by the release of various cytokines. […] TNF-α, IL1β and IL-6 are important cytokines in the pathogenesis of RA and MS and therefore selected in this assay.
(§2) Whole blood was collected from an adult volunteer in Heparin tubes. LPS stimulation started within 60 minutes of blood draw. The blood was diluted with RPMI and then stimulated with LPS and incubated with different concentrations of either Rabeximod or the inventive compound. The samples were centrifuged and plasma harvested and analysed on Luminex to measure cytokines.
(§3) The release of cytokines and chemokines was investigated after stimulation of whole blood with LPS, and treatment with either the inventive compound or Rabeximod.

IL-6 = assay: LPS assay: IL-6 release in whole blood; assay type: cell-based, human; details: LPS 500 ng/ml
Description: as §1, §2, §3

TNF-α = assay: LPS assay: TNF-α release in whole blood; assay type: cell-based, human; details: LPS 500 ng/ml
Description: as §1, §2, §3

[3] = system: pristane-induced arthritis (PIA); assay: Pristane-induced arthritis (PIA) rat model; assay type: in vivo; details: 20 mg/kg s.c. days 5, 7, 9, 11, 13, 15
Description: Pristane-induced arthritis (PIA) in rats is an animal model that mimics the criteria used for diagnosis of rheumatoid arthritis (RA). PIA is one of the most reproducible models of RA with high incidence and little variation in severity. Disease is characterized by a pronounced T cell dependent inflammatory response resulting in inflammation of peripheral joints. Disease is induced with a single injection of pristane and has a highly reproducible onset of arthritis between day 8-12. The most severe phase of arthritis is often between day 15-25 after induction and experiment can be terminated after 25-30 days. For disease induction rats were anaesthetized with IsoFlo vet (3%) and oxygen. The root of the tail was cleaned with EtOH and pristane was injected subcutaneously (s.c.) (volume 200 μl) approximately 0.5 cm from the root of the tail. A slight pressure was put on the injection site for 10 seconds after injections to prevent leakage of oil. Rats were removed from anaesthetics and the breathing was monitored until recovery was ensured. […] Disease was evaluated 3 times per week in a blinded fashion from day 10 using a macroscopic scoring system of the four limbs ranging from 0 to (1 point for each swollen or red toe, 1 point for a swollen or red mid foot digit or knuckle, […]) resulting in a maximum total score of 60 for each rat. […]

[4] = lower concentrations (from 312.5 nM, below 5000 nM)

SMILES | histological (IHC) score of front paws compared with vehicle [1] | adverse effects from treatments [1] | disease severity (macroscopic arthritis score) compared with vehicle ([1]; all three doses (5, 10 and 20 mg/kg) s.c. every other day from day 5, six administrations, FIG. 7) | concentration that inhibits ROS production completely [2] [µg/mL] | melting point [°C] | level of IL-1β compared to Rabeximod (IL-1β; compound at 5000 nM, FIG. 5) | level of IL-1β compared to Rabeximod (IL-1β; [4]) | level of IL-6 compared to Rabeximod (IL-6; compound at 5000 nM, FIG. 4) | level of IL-6 compared to Rabeximod (IL-6; [4]) | level of TNF-α compared to Rabeximod (TNF-α; compound at 5000 nM, FIG. 3) | level of TNF-α compared to Rabeximod (TNF-α; [4]) | RA score (macroscopic arthritis score) ([3]; all study time points measured, FIG. 9) | efficacy during the most severe phase of arthritis ([3]; compared with Rabeximod) | dose-response of arthritis severity compared to Rabeximod ([1]; 5, 10 and 20 mg/kg s.c.) | disease severity (macroscopic arthritis score) compared with vehicle ([1]; 10 and 20 mg/kg s.c. every other day from day 5, six administrations, FIG. 6)
Cc1cc2nc3c4cc(Cl)ccc4n(CC(=O)NCCN(C)C)c3nc2cc1C [Rabeximod, 2-(9-chloro-2,3-dimethyl-6H-indolo[2,3-b]quinoxalin-6-yl)-N-(2-(dimethylamino)ethyl)acetamide] | No significant difference | No adverse effects | small decrease in disease severity | 12.5 |  |  |  |  |  |  |  |  |  |  | 
Cc1cc2nc3c4cc(Cl)ccc4n(CC(=S)NCCN(C)C)c3nc2cc1C [inventive compound, 2-(9-chloro-2,3-dimethyl-6H-indolo[2,3-b]quinoxalin-6-yl)-N-(2-(dimethylamino)ethyl)ethanethioamide] | significantly lower | No adverse effects |  | 6.25 | 184 to 188 | significantly lower | trend of reduced cytokines levels | significantly lower | trend of reduced cytokines levels | significantly lower | trend of reduced cytokines levels | slightly lower | better efficacy than Rabeximod | clear dose-response | small decrease in disease severity
